Assay results: US7132505B1, “Polypeptide inhibiting a proton-gated Na+ channel, a nucleic acid coding for such polypeptide and a method of manufacturing an ASIC1a channel blocker” (Centre National de la Recherche Scientifique - CNRS, dated 2006)
No end group written: not given here.

What was measured:
ASIC1a channel [1] = target: T1, ASIC1a channel (Rattus norvegicus, UniProt P55926); experiment: Amiloride block of ASIC1a channel; format: cell-based; settings: IC50 10 μM versus 0.9 nM
T1 sequence (P55926 1-526): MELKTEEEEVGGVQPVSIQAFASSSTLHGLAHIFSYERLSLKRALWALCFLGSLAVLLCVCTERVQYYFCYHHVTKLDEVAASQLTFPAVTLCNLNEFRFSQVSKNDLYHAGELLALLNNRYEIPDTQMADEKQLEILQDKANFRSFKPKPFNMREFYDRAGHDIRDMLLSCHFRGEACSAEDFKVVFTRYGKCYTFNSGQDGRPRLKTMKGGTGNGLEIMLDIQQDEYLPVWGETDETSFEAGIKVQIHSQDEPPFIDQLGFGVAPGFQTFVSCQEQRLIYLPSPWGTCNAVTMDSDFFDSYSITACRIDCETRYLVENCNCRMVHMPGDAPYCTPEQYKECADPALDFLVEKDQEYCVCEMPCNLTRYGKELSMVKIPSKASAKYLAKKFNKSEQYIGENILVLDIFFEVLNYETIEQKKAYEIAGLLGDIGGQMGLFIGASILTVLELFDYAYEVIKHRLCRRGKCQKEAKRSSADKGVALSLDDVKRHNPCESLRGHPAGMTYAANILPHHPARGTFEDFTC

ASIC1a channel [2] = target: T1, ASIC1a channel; settings: read-out: IC50 for block of ASIC1a channel; cited from earlier work
[3] = tested on: ASIC1a, ASIC1b, ASIC2a, and ASIC3; settings: cited from earlier work
[4] = target: ASIC1a channel (homomultimer)
[5] = target: ASIC1a channel (homomultimer); remark: listed apart in the source
[6] = target: T2, native PcTX1-sensitive H+-gated channel of rat dorsal root ganglion neurons (suggested by the filing to be a … (rat, UniProt P55926)); experiment: cell-based or functional assay
T2 sequence: T1 sequence (P55926 1-526)

N=C(N)NC(=O)c1nc(Cl)c(N)nc1N [amiloride]
affinity for ASIC1a relative to PcTX1 (fold lower) (ASIC1a channel [1]): 10^4
IC50 (ASIC1a channel [2]): 10 µM
block of transient current generated by ASIC1a, ASIC1b, ASIC2a, and ASIC3 [3]: blocks all transient expression of current

crude Psalmopoeus cambridgei venom (pool or library)
ASIC1a current in Xenopus oocytes [4]: 90%

EDCIPKWKGCVNRHGDCCEGLECWKRRRSFEVCVPKTPKT-OH (disulfide (positions not given here)) [Psalmotoxin 1 (PcTX1)]
IC50 of block of the ASIC1a current recorded at pH 6 in Xenopus oocytes [5]: 0.9 nM
IC50 of inhibition of the H+-gated current in the PcTX1-sensitive population of DRG neurons [6]: 0.0007 µM
